Test results reported in paper PMC11783601, “Analogue-Sensitive Inhibition of Histone Demethylases Uncovers Member-Specific Function in Ribosomal Protein Synthesis” (Journal of the American Chemical Society, 2025).
Entries after “also recorded” stand apart in the source; their conditions may differ.

How the values were obtained:
NO66 = target: T1, NO66 (Homo sapiens, UniProt Q9H6W3); experiment: MALDI-based assay for C14orf169 (NO66) histidyl hydroxylation of peptide; assay type: biochemical; conditions: MALDI-TOF, peptide substrate
T1 construct: we recombinantly expressed the catalytic domains of 12 wild type dioxygenases; Tev His Flag (C); host or cells: E. coli BL21 (DE3)
Experimental: (§1) MALDI-based assay for C14orf169 (NO66) and MINA: To monitor the enzymatic activity of
(§2) C14orf169 and MINA recombinant proteins, previous methods were utilized.10-11 Briefly, 10 µM
(§3) each recombinant protein was incubated with 10 µM peptide substrate (NH2-
(§4) Ascorbic Acid, 100 µM Iron (II), 50mM HEPES pH 7.5, and 200 µM L-Leu NOG or equivalent
(§5) volume of water in 10 µL water. Aliquots were kept on ice for 10 minutes before addition of 200
(§6) µM 2OG or equivalent volume of water. After 30-60 minutes incubation at 37 °C, 1 µL sample and
(§7) 1 µL S-DHB matrix were spotted on a MALDI plate and monitored with Bruker FlexControl in
(§8) the reflectron positive mode and analyzed on Bruker FlexAnalysis software. […]

PHD3 (EGLN3) = target: T2, PHD3 (EGLN3) (Homo sapiens, UniProt Q9H6Z9); experiment: MALDI-based assay EGLN3 prolyl hydroxylation of peptide; assay type: biochemical; conditions: MALDI-TOF, peptide substrate
T2 construct: Full length EGLN3 construct plasmid with; TEV-His (N); host or cells: E. coli BL21 (DE3)
Experimental: demethylation events on the peptide. The percent peak area was calculated, and the K27me2, me1,
and me0 peaks were summed to get the relative percent demethylated peptide.
MALDI-based assay for FTO and ALKBH5: To determine the enzymatic activity of FTO and
ALKBH5 recombinant proteins in the presence of L-Leu NOG 6, a previously published methods
were utilized.15, 18 Briefly,10 µM of each protein was incubated in the presence of 10 µM RNA
7.5, 150 mM KCl, 50 µM L-Leu NOG or equivalent volume of water in 10 µL aliquots. The
samples were placed on ice for 10 minutes followed by addition of 200 µM 2OG or equivalent
volume of water. After incubation at 37 °C for 30 minutes, samples were desalted with 3 µL of BT
spotted on a MALDI plate with 1uL sample and 1uL of 3-HPA matrix and monitored with Bruker
FlexControl in the reflectron negative mode and analyzed on Bruker FlexAnalysis software.
Relative inhibition was monitored via assessing percent product decrease with L-Leu NOG
MALDI-based assay for C14orf169 (NO66) and MINA: To monitor the enzymatic activity of […]
as §7, §8
was monitored via assessing percent product decrease with L-Leu NOG samples compared to no […]
monitored following a reported method.19 To monitor the enzymatic activity of EGLN1 and 3 […]

MINA = target: T3, MINA (Homo sapiens, UniProt Q8IUF8); experiment: MALDI-based assay for MINA histidyl hydroxylation of peptide; assay type: biochemical; conditions: MALDI-TOF, peptide substrate
T3 construct: we recombinantly expressed the catalytic domains of 12 wild type dioxygenases; His-TEV (N); host or cells: E. coli BL21 (DE3)
Experimental: as §1, §2, §3, §4, §5, §6, §7, §8

[1] = target: T4, full-length wild type KDM4E (Homo sapiens, UniProt B2RXH2); experiment: H3K9me3 Western blot of nuclear extracts of transfected HEK293T cells; assay type: cell-based
T4 construct: HEK293T cells were transfected with full-length wild type KDM4B-E or their respective mutants; host or cells: HEK293T
Excerpt: KDM4B and C are structurally homologous to KDM4A, and KDM4D and E have a catalytic pocket near-identical to that of KDM4A but lack the Tudor and PHD domains known to bind trimethylated lysine in histones (Figure 1B).[11] HEK293T cells were transfected with full-length wild type KDM4B-E or their respective mutants. Western blot analysis of nuclear preparations using the H3K9me3 antibody confirmed all of the proteins to be catalytically active (Figures 4G–N and S32–S35).
KDM4A mammalian expression plasmid in CMV vector was purchased from Addgene (plasmid #24180). KDM4B mammalian expression plasmid in CMV vector was purchased from Addgene (plasmid #24181). KDM4C mammalian expression plasmid in CMV vector was purchased from Addgene (plasmid #24214). KDM4D mammalian expression plasmid in pReciever vector was purchased from Genecopoia (EX-Z0917-M06.) KDME mammalian expression plasmid in pRP-EXP was designed from Vector Builder. The KDM4A-F185A, KDM4B-F186A, KDM4C -F187A, KDM4D-F189A, and KDM4E F186A mutants were generated using Quikchange Lightening Mutagenesis Kit (Agilent) according to manufacturer’s protocol and confirmed by Sanger […]
HEK293T/17 cells (ATCC) were grown in Delbucco’s Modified Eagle Medium (DMEM) (Corning) with 10% FBS at 37 °C (Corning), 5% CO2, and 95% relative humidity in a 6-well cell culture plate. When cells reached 90% confluency, 3 µg of plasmid and 6 µg lipofectamine 2000 (Invitrogen: 11668019) were incubated with 100 µL OptiMem. After 5 minutes the plasmid and lipofectamine were combined and incubated at room temperature for 20 minutes and added to the cell culture disk. Cells were returned to the incubator to grow for 4-6 hours. This was followed by treatment of compound treatment (n-octyl IOX121,22 or a specific NOG ester) at indicated concentrations and further culture for specified time. The media was removed, and cells were washed with ice cold PBS (Corning), then trypsinized with TrpLE Express (Gibco). The trypsinization reaction was quenched with DMEM 10% FBS and cells were pelleted then washed once with ice cold PBS. The nuclear extracts were generated by first resuspending the cell pellets in 700 µL nuclear isolation buffer (15 mM Tris pH 7.5, 60 mM KCl, 15 mM NaCl, 5 mM MgCl2, 1 mM CaCl2, 1mm DTT, 2 mM Na3Van, 250 mM sucrose, 1X Pierce protease inhibitor (Thermo Fisher #PIA32955), 1 mM PMSF, 0.3% NP40 diluted to volume with MilliQ H2O) and incubated on ice for 5 minutes.23 The samples were then pelleted by centrifugation at 2000 rcf for 5 minutes.
The supernatant was removed, and the pelleted nuclei were resuspended in 200 µL Pierce IP lysis buffer (Thermo Fisher #87787) containing 1X Pierce protease inhibitor and left on ice for 5 minutes. The nuclei were then sonicated at 100% amp for 5 minutes (pulsed 1 minute “on”, 20 seconds “rest”) using a Qsonica-Q700, cuphorn sonicator. The samples were pelleted once again at 2000 rcf for 5 minutes and the supernatant containing the nuclear extracts were collected. MgCl2 (1M) solution was added to each sample give a final concentration of 6mM. […]
Prism with the corresponding bars representing the mean and standard deviation of the population.
For the time dependent imaging, cells containing the transfected KDM4A mutant were identified by their HA signal. These cells were used to create a selection which was then imposed onto the respective H3K9me3 or BrdU images. The mean signal was then measured for H3K9me3 or BrdU only within the cells expressing the KDM4A mutant. To compare changes in H3K9me3 or BrdU between trials, the quantification values were normalized to the mean signal at t=0. The normalized, mean signal and error for H3K9me3 or BrdU were then plotted in GraphPad Prism.
21. General protocol for Western blotting
Assay samples were mixed with appropriate volume of 4X Laemmli Dye (Bio-Rad), heated at 95 °C for 5 minutes and loaded onto 4–12% Criterion™ XT Bis-Tris protein gels (Bio-Rad #3450123) or in-house prepared SDS-polyacrylamide gel and subjected to electrophoresis […]

T4 sequence (B2RXH2 whole entry): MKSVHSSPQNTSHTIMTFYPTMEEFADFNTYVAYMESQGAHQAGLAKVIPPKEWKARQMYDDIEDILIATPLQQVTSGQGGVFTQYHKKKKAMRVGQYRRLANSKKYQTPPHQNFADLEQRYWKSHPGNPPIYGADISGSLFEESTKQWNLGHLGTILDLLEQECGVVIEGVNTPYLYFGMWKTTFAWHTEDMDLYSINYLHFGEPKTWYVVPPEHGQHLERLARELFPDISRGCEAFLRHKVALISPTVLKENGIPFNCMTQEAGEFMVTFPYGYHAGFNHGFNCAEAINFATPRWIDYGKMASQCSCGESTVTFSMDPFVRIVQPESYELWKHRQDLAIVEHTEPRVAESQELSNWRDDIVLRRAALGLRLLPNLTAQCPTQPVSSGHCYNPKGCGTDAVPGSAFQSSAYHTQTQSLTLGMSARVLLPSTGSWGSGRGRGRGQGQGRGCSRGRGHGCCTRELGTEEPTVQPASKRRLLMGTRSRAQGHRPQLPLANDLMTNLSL
T2 sequence (Q9H6Z9 whole entry): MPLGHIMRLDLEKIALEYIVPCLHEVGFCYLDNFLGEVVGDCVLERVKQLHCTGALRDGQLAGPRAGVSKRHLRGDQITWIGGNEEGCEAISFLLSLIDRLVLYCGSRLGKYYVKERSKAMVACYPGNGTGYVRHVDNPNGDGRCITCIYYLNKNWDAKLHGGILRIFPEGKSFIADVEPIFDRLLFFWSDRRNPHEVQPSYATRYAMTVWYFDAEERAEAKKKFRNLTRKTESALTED
T3 sequence (Q8IUF8 139-271 limits assumed): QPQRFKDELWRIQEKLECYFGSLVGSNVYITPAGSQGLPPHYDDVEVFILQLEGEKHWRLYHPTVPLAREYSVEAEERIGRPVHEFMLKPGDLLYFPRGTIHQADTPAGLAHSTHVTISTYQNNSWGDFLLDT
T1 sequence (Q9H6W3 294-439 limits assumed): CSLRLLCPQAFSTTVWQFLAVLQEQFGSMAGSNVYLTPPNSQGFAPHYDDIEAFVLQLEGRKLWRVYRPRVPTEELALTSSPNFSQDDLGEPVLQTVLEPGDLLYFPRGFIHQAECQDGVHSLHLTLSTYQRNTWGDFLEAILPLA

| Compound | inhibition of NO66 (NO66) | inhibition of PHD3 (PHD3 (EGLN3)) | inhibition of MINA (MINA) | inhibition of wild type KDM4E H3K9me3 demethylation [1] |
| --- | --- | --- | --- | --- |
| CC(C)CC(NC(=O)C(=O)O)C(=O)O (stereo not shown) [compound 6, N-oxalyl leucine] | No inhibition | No inhibition | No inhibition |  |
| CCCCCCCCOC(=O)c1ccc(O)c2ncccc12 [n-octyl IOX1] |  |  |  | Dose-dependent inhibition; also recorded: significantly reduced |
